Data published in ChEMBL document CHEMBL2150993, “Substituted thiazoles VII. Synthesis and antitumor activity of certain 2-(substituted amino)-4-phenyl-1,3-thiazole analogs” (2012).

Tests used:
Assay type in all cases: functional
Settings in all cases: at 10 µM
CCRF-CEM = assay: Growth inhibition of human CCRF-CEM cells after 48 hrs by cell counting analysis
HL-60 = assay: Growth inhibition of human HL60 cells after 48 hrs by cell counting analysis
K562 = assay: Growth inhibition of human K562 cells after 48 hrs by cell counting analysis
RPMI-8226 = assay: Growth inhibition of human RPMI8226 cells after 48 hrs by cell counting analysis
SR = assay: Growth inhibition of human SR cells after 48 hrs by cell counting analysis
A549 = assay: Growth inhibition of human A549 cells after 48 hrs by cell counting analysis
EKVX = assay: Growth inhibition of human EKVX cells after 48 hrs by cell counting analysis
HOP-62 = assay: Growth inhibition of human HOP62 cells after 48 hrs by cell counting analysis
HOP-92 = assay: Growth inhibition of human HOP92 cells after 48 hrs by cell counting analysis
NCI-H226 = assay: Growth inhibition of human NCI-H226 cells after 48 hrs by cell counting analysis
NCI-H23 = assay: Growth inhibition of human NCI-H23 cells after 48 hrs by cell counting analysis
[1] = Growth inhibition of human NCI-322M cells after 48 hrs by cell counting analysis
NCI-H522 = assay: Growth inhibition of human NCI-H522 cells after 48 hrs by cell counting analysis
HCC 2998 = assay: Growth inhibition of human HCC2998 cells after 48 hrs by cell counting analysis
HCT-15 = assay: Growth inhibition of human HCT15 cells after 48 hrs by cell counting analysis
HT-29 = assay: Growth inhibition of human HT-29 cells after 48 hrs by cell counting analysis
KM12 = assay: Growth inhibition of human KM12 cells after 48 hrs by cell counting analysis
SW-620 = assay: Growth inhibition of human SW620 cells after 48 hrs by cell counting analysis
SF-268 = assay: Growth inhibition of human SF268 cells after 48 hrs by cell counting analysis
SF-295 = assay: Growth inhibition of human SF295 cells after 48 hrs by cell counting analysis
SF-539 = assay: Growth inhibition of human SF539 cells after 48 hrs by cell counting analysis
SNB-19 = assay: Growth inhibition of human SNB19 cells after 48 hrs by cell counting analysis
SNB-75 = assay: Growth inhibition of human SNB75 cells after 48 hrs by cell counting analysis
U-251 = assay: Growth inhibition of human U251 cells after 48 hrs by cell counting analysis
LOX IMVI = assay: Growth inhibition of human LOXIMVI cells after 48 hrs by cell counting analysis
Malme-3M = assay: Growth inhibition of human MALME-3M cells after 48 hrs by cell counting analysis
M14 = assay: Growth inhibition of human M14 cells after 48 hrs by cell counting analysis
MDA-MB-435 = assay: Growth inhibition of human MDA-MB-435 cells after 48 hrs by cell counting analysis
SK-MEL-2 = assay: Growth inhibition of human SK-MEL-2 cells after 48 hrs by cell counting analysis
SK-MEL-28 = assay: Growth inhibition of human SK-MEL-28 cells after 48 hrs by cell counting analysis
SK-MEL-5 = assay: Growth inhibition of human SK-MEL-5 cells after 48 hrs by cell counting analysis
UACC-257 = assay: Growth inhibition of human UACC257 cells after 48 hrs by cell counting analysis
UACC-62 = assay: Growth inhibition of human UACC62 cells after 48 hrs by cell counting analysis
IGROV-1 = assay: Growth inhibition of human IGROV1 cells after 48 hrs by cell counting analysis
OVCAR-3 = assay: Growth inhibition of human OVCAR3 cells after 48 hrs by cell counting analysis
OVCAR-4 = assay: Growth inhibition of human OVCAR4 cells after 48 hrs by cell counting analysis
OVCAR-5 = assay: Growth inhibition of human OVCAR5 cells after 48 hrs by cell counting analysis
OVCAR-8 = assay: Growth inhibition of human OVCAR8 cells after 48 hrs by cell counting analysis
[2] = Growth inhibition of human NCI-ADR-RES cells after 48 hrs by cell counting analysis
SK-OV-3 = assay: Growth inhibition of human SKOV3 cells after 48 hrs by cell counting analysis
ACHN = assay: Growth inhibition of human ACHN cells after 48 hrs by cell counting analysis
CAKI-1 = assay: Growth inhibition of human Caki1 cells after 48 hrs by cell counting analysis
RXF 393 = assay: Growth inhibition of human RXF393 cells after 48 hrs by cell counting analysis
SN12C = assay: Growth inhibition of human SN12C cells after 48 hrs by cell counting analysis
TK-10 = assay: Growth inhibition of human TK10 cells after 48 hrs by cell counting analysis
UO-31 = assay: Growth inhibition of human UO31 cells after 48 hrs by cell counting analysis
PC-3 = assay: Growth inhibition of human PC3 cells after 48 hrs by cell counting analysis
MCF7 = assay: Growth inhibition of human MCF7 cells after 48 hrs by cell counting analysis
MDA-MB-231 = assay: Growth inhibition of human MDA-MB-231 cells after 48 hrs by cell counting analysis
BT-549 = assay: Growth inhibition of human BT549 cells after 48 hrs by cell counting analysis
T47D = assay: Growth inhibition of human T47D cells after 48 hrs by cell counting analysis
MDA-MB-468 = assay: Growth inhibition of human MDA-MB-468 cells after 48 hrs by cell counting analysis
MOLT-4 = assay: Growth inhibition of human MOLT4 cells after 48 hrs by cell counting analysis
HCT-116 = assay: Growth inhibition of human HCT116 cells after 48 hrs by cell counting analysis

Measured: growth inhibition (GI)

O=C(CN1CCN(c2ccccc2)CC1)Nc1nc(-c2ccc(Cl)cc2)cs1
12.7%: HOP-62
19%: T47D
21.1%: PC-3
60.2%: HOP-92
10.4%: IGROV-1
20.3%: UACC-62
11.7%: SK-MEL-5
16.4%: HCT-116
34.4%: UO-31
<10%: all other assays above

Cc1ccc(-c2csc(NC(=O)CN3CCN(c4ccccc4)CC3)n2)cc1
27.3%: SF-295
32.5%: EKVX
20.8%: T47D
18.9%: NCI-H23
12.1%: SNB-75
17.6%: MDA-MB-435
10.6%: HCT-15
13.4%: CCRF-CEM
31.1%: PC-3
17%: SN12C
28.1%: OVCAR-4
27.6%: SK-MEL-5
13.9%: SF-268
23.6%: UACC-62
21.4%: [1]
33.8%: IGROV-1
17.2%: LOX IMVI
31.4%: A549
20.9%: MCF7
48.2%: UO-31
23.7%: MOLT-4
21%: [2]
23.1%: MDA-MB-468
15.2%: HCC 2998
24.6%: CAKI-1
<10%: all other assays above
